Earlier results, collected in patent publication US8920835B2, “Paliperidone double-layered osmotic pump controlled release tablet and preparation method thereof” (Shanghai Institute of Materia Medica, Chinese Academy of …, priority 2009, dated 2014).

Experiments:
[1] = in vivo

- apparent volume of distribution [1]: 487 L
- half-life of the terminal elimination phase [1]: about 23 h
- plasma protein binding rate: 74%
SMILES: Cc1nc2n(c(=O)c1CCN1CCC(c3noc4cc(F)ccc34)CC1)CCCC2O (stereo not drawn) [Paliperidone]
